Results: ChEMBL document CHEMBL3217678 (Medchemcomm, 2011)
Active and inactive are the calls of the source. The rule behind the calls is not given here.

Experiments:
[1] = test system: Mycobacterium tuberculosis; experiment: Inhibition of Mycobacterium tuberculosis 20S proteasome open-gate mutant chymotrypsin like activity using Suc-LLVY-AMC as substrate assessed as decrease in enzyme velocity up to 100 uM
[2] = test system: Mycobacterium tuberculosis; experiment: Inhibition of Mycobacterium tuberculosis 20S proteasome open-gate mutant using Suc-LLVY-AMC as substrate at 1 mM preincubated for 30 mins followed by substrate addition measured after 90 mins by fluorescence assay
[3] = Selectivity for Mycobacterium tuberculosis 20S proteasome open-gate mutant over human 20S proteasome
[4] = Inhibition of Mycobacterium tuberculosis 20S proteasome open-gate mutant using Suc-LLVY-AMC as substrate preincubated for 30 mins followed by substrate addition measured after 90 mins by fluorescence assay

SMILES | inhibition [1] | inhibition [2] | Selectivity ratio [3] | IC50 [4]
CC(C)C[C@@H](NC(=O)[C@H](Cc1ccccc1)NC(=O)c1cnccn1)c1nsc(=O)o1 | inactive | inactive |  | 
COc1cccc(-c2nsc(=O)o2)c1 |  |  | > 1000 | 
CC(C)C[C@H](NC(=O)[C@H](Cc1ccccc1)NC(=O)c1cnccn1)c1nsc(=O)o1 | inactive | inactive |  | 
CC(C)C[C@H](NC(=O)[C@H](Cc1ccccc1)NC(=O)c1cnccn1)B(O)O [BORTEZOMIB] |  |  |  | 24.9 nM
